From patent US8436004B2, “Bicycloaniline derivative” (MSD K.K., priority 2007, dated 2013)
Counter-ions that a name gives are not always drawn.

These compounds were tested on Cdc2 (Cdk1) tyrosine 15-phosphorylation in WiDr cells (assay: Cdc2 (Cdk1) tyrosine 15-phosphorylation-inhibitory effect in gemcitabine-treated WiDr cells (ELISA)). Details: Homo sapiens, gemcitabine 100 nM 24 hours, then test compound + nocodazole 8 hours, read-out: Cdc2-Y15 Phosphorylation-Inhibitory Effect (WiDr, + gemcitabine) (EC50).
Type: cell-based
Text: Pharmacological Test 2 (Method of Determining Drug Potency with Cells (Cdc2 (Cdk1) Tyrosine 15-Phosphorylation-Inhibitory Effect))
Fetal bovine serum (FBS) was obtained from Morgate; media RPMI1640 and DMEM were from Invitrogen; camptothecin was from Sigma; gemcitabine was from Nippon Eli Lilly; nocodazole and protease inhibitor cocktail were from Sigma; rabbit anti-Cdc2 antibody and mouse anti-Cdc2 antibody were from Santa Cruz Biotechnology; rabbit anti-tyrosine 15-phosphorylated Cdc2 antibody and horseradish peroxidase-labeled anti-mouse IgG antibody were from Cell Signaling Technology; sure blue reserve TMB peroxidase substrate was from Kirkegaard and Perry Laboratories.
Human non-small cell lung cancer cells (NCI-H1299) and human colon cancer cells (WiDr) were obtained from American Type Culture Collection (ATCC).
In the method of using WiDr cells, the cells were suspended in a medium of 10% FBS-added DMEM, and the cell suspension was applied to a 96-well Nunclondelta-processed plastic plate in an amount of 2000 cells/100 μL/well, in which the cells were incubated overnight in 5% CO2-95% air at 37° C. […] Cdc2 was determined through ELISA as follows: A rabbit anti-Cdc2 antibody solution, which had been diluted 200-fold with 50 mM carbonate-bicarbonate buffer (pH 9.6), was applied to a 96-well maxisorp plastic plate in an amount of 50 μL/well, and statically kept overnight at 4° C. so as to fix the antibody on the plate. […] Then, 1 M hydrochloric acid was added to it in an amount of 100 μL/well to stop the reaction, and this was analyzed through colorimetry. Tyrosine 15-phosphorylated Cdc2 was determined through ELISA as follows: A rabbit anti-tyrosine 15-phosphorylated Cdc2 antibody solution, which had been diluted 100-fold with 50 mM carbonate-bicarbonate buffer (pH 9.6), was applied to a 96-well maxisorp plastic plate in an amount of 50 μL/well, and statically kept overnight at 4° C. so as to fix the antibody on the plate. […]

Row | EC50 | SMILES
1 | 21 nM | CN1Cc2cc(Nc3ncc4c(=N)n(-c5c(Cl)cccc5Cl)c(=O)[nH]c4n3)ccc2C2(CC2)C1 [Example 1, 3-(2,6-dichlorophenyl)-4-imino-7-[(2′-methyl-2′,3′-dihydro-1′H-spiro[cyclopropane-1,4′-isoquinolin]-7′-yl)amino]-3,4-dihydropyrimido[4,5-d]pyrimidin-2(1H)-one dihydrochloride]
2 | 46 nM | CN1Cc2cc(Nc3ncc4c(=N)n(-c5c(Cl)cccc5Cl)c(=O)[nH]c4n3)ccc2C(C)(C)C1 [Example 2, 3-(2,6-dichlorophenyl)-4-imino-7-{[2,4,4-trimethyl-1,2,3,4-tetrahydroisoquinolin-7-yl]amino}-3,4-dihydropyrimido[4,5-d]pyrimidin-2(1H)-one]
3 | 24 nM | CN1Cc2cc(Nc3ncc4c(=N)n(-c5c(Cl)cccc5Cl)c(=O)[nH]c4n3)ccc2C1(C)C [Example 7, 3-(2,6-dichlorophenyl)-4-imino-7-[(1,1,2-trimethyl-2,3-dihydro-1H-isoindol-5-yl)amino]-3,4-dihydropyrimido[4,5-d]pyrimidin-2(1H)-one]
